Measured values as given in publication PMC8436250 (Nature structural & molecular biology, 2019).

Legend:
ATP-citrate lyase (ACLY) [1] = molecular target: T1, ATP-citrate lyase (ACLY) (Homo sapiens, UniProt P53396); experiment: cryo-EM structure; type: binding
T1 sequence (P53396 1-1101): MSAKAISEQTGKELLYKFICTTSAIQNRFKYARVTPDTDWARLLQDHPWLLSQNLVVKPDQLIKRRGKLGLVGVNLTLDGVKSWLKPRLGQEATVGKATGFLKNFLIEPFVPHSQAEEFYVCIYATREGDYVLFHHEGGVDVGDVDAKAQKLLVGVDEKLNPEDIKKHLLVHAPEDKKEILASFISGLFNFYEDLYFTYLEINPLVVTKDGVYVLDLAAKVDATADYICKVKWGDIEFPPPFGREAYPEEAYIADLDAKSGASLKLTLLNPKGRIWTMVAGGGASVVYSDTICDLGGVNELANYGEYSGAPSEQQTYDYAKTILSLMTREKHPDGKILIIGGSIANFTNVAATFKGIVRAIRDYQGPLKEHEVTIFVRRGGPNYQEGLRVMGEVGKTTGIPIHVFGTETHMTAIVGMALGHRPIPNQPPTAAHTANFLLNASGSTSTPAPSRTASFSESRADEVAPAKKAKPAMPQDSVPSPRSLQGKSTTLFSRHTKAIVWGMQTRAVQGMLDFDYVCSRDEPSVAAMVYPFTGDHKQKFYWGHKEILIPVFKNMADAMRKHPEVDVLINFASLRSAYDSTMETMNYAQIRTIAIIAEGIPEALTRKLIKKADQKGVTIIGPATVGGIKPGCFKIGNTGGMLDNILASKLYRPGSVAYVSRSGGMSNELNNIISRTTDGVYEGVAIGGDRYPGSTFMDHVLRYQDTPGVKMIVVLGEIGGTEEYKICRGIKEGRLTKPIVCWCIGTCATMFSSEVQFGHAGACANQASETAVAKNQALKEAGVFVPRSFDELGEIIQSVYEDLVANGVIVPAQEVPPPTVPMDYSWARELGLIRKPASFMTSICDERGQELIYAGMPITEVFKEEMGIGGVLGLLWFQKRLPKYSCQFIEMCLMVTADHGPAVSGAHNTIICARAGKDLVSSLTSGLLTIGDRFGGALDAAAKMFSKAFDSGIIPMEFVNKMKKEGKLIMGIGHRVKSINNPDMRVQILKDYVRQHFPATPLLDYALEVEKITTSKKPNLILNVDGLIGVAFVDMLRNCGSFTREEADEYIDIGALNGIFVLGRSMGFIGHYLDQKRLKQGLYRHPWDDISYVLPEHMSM

ATP-citrate lyase (ACLY) [2] = molecular target: T2, ATP-citrate lyase (ACLY) (Homo sapiens, UniProt P53396, E599Q); experiment: cryo-EM structure; type: binding
T2 sequence (P53396 1-1101 E599Q): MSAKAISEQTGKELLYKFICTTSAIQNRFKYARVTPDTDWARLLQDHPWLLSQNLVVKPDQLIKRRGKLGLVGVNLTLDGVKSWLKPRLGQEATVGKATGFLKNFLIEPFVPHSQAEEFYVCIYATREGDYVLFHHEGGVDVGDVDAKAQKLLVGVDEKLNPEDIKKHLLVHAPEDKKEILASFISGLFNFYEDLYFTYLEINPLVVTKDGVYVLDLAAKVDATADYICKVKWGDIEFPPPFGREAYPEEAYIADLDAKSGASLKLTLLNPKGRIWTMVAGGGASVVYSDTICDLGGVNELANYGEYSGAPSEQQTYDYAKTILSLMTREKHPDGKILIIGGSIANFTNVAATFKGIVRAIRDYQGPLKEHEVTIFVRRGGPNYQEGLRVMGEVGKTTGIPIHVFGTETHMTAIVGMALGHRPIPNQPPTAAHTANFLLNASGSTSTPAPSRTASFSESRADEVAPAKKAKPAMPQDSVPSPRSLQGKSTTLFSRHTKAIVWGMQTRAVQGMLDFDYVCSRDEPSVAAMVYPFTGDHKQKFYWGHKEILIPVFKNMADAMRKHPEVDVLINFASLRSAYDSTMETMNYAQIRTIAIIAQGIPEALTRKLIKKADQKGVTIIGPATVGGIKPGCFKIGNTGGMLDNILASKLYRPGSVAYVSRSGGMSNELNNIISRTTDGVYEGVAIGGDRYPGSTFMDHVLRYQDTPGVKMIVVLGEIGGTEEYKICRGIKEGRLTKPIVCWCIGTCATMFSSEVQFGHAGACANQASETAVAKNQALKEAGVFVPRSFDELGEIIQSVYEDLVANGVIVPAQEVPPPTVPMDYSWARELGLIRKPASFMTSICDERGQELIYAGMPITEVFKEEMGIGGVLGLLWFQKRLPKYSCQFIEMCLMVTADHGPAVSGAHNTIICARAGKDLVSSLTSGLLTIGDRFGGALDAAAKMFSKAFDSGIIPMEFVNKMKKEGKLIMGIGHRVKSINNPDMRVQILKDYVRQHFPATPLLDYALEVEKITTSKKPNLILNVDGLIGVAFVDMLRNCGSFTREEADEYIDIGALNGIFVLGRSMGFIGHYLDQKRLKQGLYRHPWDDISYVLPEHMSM

ATP-citrate lyase (ACLY) [3] = molecular target: T1, ATP-citrate lyase (ACLY); experiment: cryo-EM structure; type: binding; remark: listed apart in the source
ATP-citrate lyase (ACLY) [4] = molecular target: T1, ATP-citrate lyase (ACLY); experiment: steady-state intrinsic fluorescence titration, one-site fit; type: binding
ATP-citrate lyase (ACLY) [5] = molecular target: T1, ATP-citrate lyase (ACLY); experiment: cryo-EM structure; type: binding; remark: listed apart in the source
[6] = molecular target: T3, ATP-citrate lyase (ACLY), full length human, wild type (human), P53396; experiment: cryo-EM structure; settings: remark: other sources report otherwise
T3 chain: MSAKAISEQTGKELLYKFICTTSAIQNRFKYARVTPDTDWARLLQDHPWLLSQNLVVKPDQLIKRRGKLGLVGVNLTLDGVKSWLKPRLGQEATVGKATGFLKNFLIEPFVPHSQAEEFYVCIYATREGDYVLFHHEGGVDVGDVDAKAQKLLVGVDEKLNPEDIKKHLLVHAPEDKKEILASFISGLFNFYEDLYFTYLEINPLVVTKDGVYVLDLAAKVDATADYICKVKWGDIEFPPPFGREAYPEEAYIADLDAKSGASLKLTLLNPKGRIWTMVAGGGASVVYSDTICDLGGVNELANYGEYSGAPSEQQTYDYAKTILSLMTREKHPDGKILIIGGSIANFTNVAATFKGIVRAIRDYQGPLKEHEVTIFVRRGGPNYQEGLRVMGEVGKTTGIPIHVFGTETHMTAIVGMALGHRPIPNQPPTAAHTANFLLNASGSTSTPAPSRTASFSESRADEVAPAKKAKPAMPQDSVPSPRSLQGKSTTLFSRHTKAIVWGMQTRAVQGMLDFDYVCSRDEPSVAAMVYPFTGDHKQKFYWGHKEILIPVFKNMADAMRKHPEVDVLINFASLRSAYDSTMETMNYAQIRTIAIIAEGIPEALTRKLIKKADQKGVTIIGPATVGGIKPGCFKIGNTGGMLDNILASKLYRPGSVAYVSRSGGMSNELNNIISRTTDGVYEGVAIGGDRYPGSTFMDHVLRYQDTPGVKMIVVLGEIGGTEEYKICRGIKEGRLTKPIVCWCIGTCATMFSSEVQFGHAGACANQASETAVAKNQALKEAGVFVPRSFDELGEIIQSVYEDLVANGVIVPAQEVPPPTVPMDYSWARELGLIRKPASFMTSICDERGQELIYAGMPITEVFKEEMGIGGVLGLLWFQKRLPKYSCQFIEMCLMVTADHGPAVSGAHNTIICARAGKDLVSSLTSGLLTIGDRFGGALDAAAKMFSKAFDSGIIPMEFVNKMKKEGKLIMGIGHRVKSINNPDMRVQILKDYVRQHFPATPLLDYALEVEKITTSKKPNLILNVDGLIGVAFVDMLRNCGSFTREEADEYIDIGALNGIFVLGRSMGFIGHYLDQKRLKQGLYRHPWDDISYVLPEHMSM

cryo-EM structure = molecular target: the molecule itself; experiment: cryo-EM structure

## O=C(O)CC(=O)C(=O)O [OAA, oxaloacetate]
ATP-citrate lyase (ACLY) [1]
  Kd: 15 ± 4 µM

## Nc1ncnc2c1ncn2[C@@H]1O[C@H](COP(=O)(O)OP(=O)(O)O)[C@@H](O)[C@H]1O [ADP]
ATP-citrate lyase (ACLY) [2]
  cryo-EM structure (2.85 Å) of mutant mixed with ATP, citrate and CoA: ACLY-E599Q–ATP–citrate–CoA structure highlighting the bound ADP (hydrolyzed ATP) and phospho-citryl-CoA intermediate

## CC(C)(COP(=O)(O)OP(=O)(O)OC[C@H]1O[C@@H](n2cnc3c(N)ncnc32)[C@H](O)[C@@H]1OP(=O)(O)O)[C@@H](O)C(=O)NCCC(=O)NCCS [CoA, Coenzyme A]
ATP-citrate lyase (ACLY) [3]
  cryo-EM structure (3.0 Å, D2): CoA binds at the interface between the CSH and ASH domains of separate subunits

## O=C(O)CC(O)(CC(=O)O)C(=O)O [citrate]
ATP-citrate lyase (ACLY) [4]
  Kd: 3.4 ± 0.5 µM

## CC(=O)SCCNC(=O)CCNC(=O)[C@H](O)C(C)(C)COP(=O)(O)OP(=O)(O)OC[C@H]1O[C@@H](n2cnc3c(N)ncnc32)[C@H](O)[C@@H]1OP(=O)(O)O [acetyl-CoA]
ATP-citrate lyase (ACLY) [5]
  cryo-EM structure (3.1 Å, D2) with OAA; DSF stabilization: acetyl-CoA occupied the same binding site as CoA and was also stabilized by the same basic residues, R576 and K964

B1: ATP-citrate lyase (ACLY), full length human, wild type, P53396 1-1101 (enzyme)
chain: MSAKAISEQTGKELLYKFICTTSAIQNRFKYARVTPDTDWARLLQDHPWLLSQNLVVKPDQLIKRRGKLGLVGVNLTLDGVKSWLKPRLGQEATVGKATGFLKNFLIEPFVPHSQAEEFYVCIYATREGDYVLFHHEGGVDVGDVDAKAQKLLVGVDEKLNPEDIKKHLLVHAPEDKKEILASFISGLFNFYEDLYFTYLEINPLVVTKDGVYVLDLAAKVDATADYICKVKWGDIEFPPPFGREAYPEEAYIADLDAKSGASLKLTLLNPKGRIWTMVAGGGASVVYSDTICDLGGVNELANYGEYSGAPSEQQTYDYAKTILSLMTREKHPDGKILIIGGSIANFTNVAATFKGIVRAIRDYQGPLKEHEVTIFVRRGGPNYQEGLRVMGEVGKTTGIPIHVFGTETHMTAIVGMALGHRPIPNQPPTAAHTANFLLNASGSTSTPAPSRTASFSESRADEVAPAKKAKPAMPQDSVPSPRSLQGKSTTLFSRHTKAIVWGMQTRAVQGMLDFDYVCSRDEPSVAAMVYPFTGDHKQKFYWGHKEILIPVFKNMADAMRKHPEVDVLINFASLRSAYDSTMETMNYAQIRTIAIIAEGIPEALTRKLIKKADQKGVTIIGPATVGGIKPGCFKIGNTGGMLDNILASKLYRPGSVAYVSRSGGMSNELNNIISRTTDGVYEGVAIGGDRYPGSTFMDHVLRYQDTPGVKMIVVLGEIGGTEEYKICRGIKEGRLTKPIVCWCIGTCATMFSSEVQFGHAGACANQASETAVAKNQALKEAGVFVPRSFDELGEIIQSVYEDLVANGVIVPAQEVPPPTVPMDYSWARELGLIRKPASFMTSICDERGQELIYAGMPITEVFKEEMGIGGVLGLLWFQKRLPKYSCQFIEMCLMVTADHGPAVSGAHNTIICARAGKDLVSSLTSGLLTIGDRFGGALDAAAKMFSKAFDSGIIPMEFVNKMKKEGKLIMGIGHRVKSINNPDMRVQILKDYVRQHFPATPLLDYALEVEKITTSKKPNLILNVDGLIGVAFVDMLRNCGSFTREEADEYIDIGALNGIFVLGRSMGFIGHYLDQKRLKQGLYRHPWDDISYVLPEHMSM
[6]
  stoichiometry N: 4

B2: ATP-citrate lyase (ACLY) E599Q catalytic mutant, full length human (enzyme, UniProt P53396 1-1101, looked up)
chain: MSAKAISEQTGKELLYKFICTTSAIQNRFKYARVTPDTDWARLLQDHPWLLSQNLVVKPDQLIKRRGKLGLVGVNLTLDGVKSWLKPRLGQEATVGKATGFLKNFLIEPFVPHSQAEEFYVCIYATREGDYVLFHHEGGVDVGDVDAKAQKLLVGVDEKLNPEDIKKHLLVHAPEDKKEILASFISGLFNFYEDLYFTYLEINPLVVTKDGVYVLDLAAKVDATADYICKVKWGDIEFPPPFGREAYPEEAYIADLDAKSGASLKLTLLNPKGRIWTMVAGGGASVVYSDTICDLGGVNELANYGEYSGAPSEQQTYDYAKTILSLMTREKHPDGKILIIGGSIANFTNVAATFKGIVRAIRDYQGPLKEHEVTIFVRRGGPNYQEGLRVMGEVGKTTGIPIHVFGTETHMTAIVGMALGHRPIPNQPPTAAHTANFLLNASGSTSTPAPSRTASFSESRADEVAPAKKAKPAMPQDSVPSPRSLQGKSTTLFSRHTKAIVWGMQTRAVQGMLDFDYVCSRDEPSVAAMVYPFTGDHKQKFYWGHKEILIPVFKNMADAMRKHPEVDVLINFASLRSAYDSTMETMNYAQIRTIAIIAQGIPEALTRKLIKKADQKGVTIIGPATVGGIKPGCFKIGNTGGMLDNILASKLYRPGSVAYVSRSGGMSNELNNIISRTTDGVYEGVAIGGDRYPGSTFMDHVLRYQDTPGVKMIVVLGEIGGTEEYKICRGIKEGRLTKPIVCWCIGTCATMFSSEVQFGHAGACANQASETAVAKNQALKEAGVFVPRSFDELGEIIQSVYEDLVANGVIVPAQEVPPPTVPMDYSWARELGLIRKPASFMTSICDERGQELIYAGMPITEVFKEEMGIGGVLGLLWFQKRLPKYSCQFIEMCLMVTADHGPAVSGAHNTIICARAGKDLVSSLTSGLLTIGDRFGGALDAAAKMFSKAFDSGIIPMEFVNKMKKEGKLIMGIGHRVKSINNPDMRVQILKDYVRQHFPATPLLDYALEVEKITTSKKPNLILNVDGLIGVAFVDMLRNCGSFTREEADEYIDIGALNGIFVLGRSMGFIGHYLDQKRLKQGLYRHPWDDISYVLPEHMSM
cryo-EM structure
  binding result: binds
